Converted amounts (≈) assume the structure as drawn. Where two headings read alike, the source gives them in different places.
Assays:
Assay type in all cases: cell-based
[1] = system: Aspergillus fumigatus NCPF2010; assay: Planktonic fungus growth: broth microdilution assay (NCPF2010); conditions: Aspergillus fumigatus, NCPF2010, n = 2-3, read-out: MIC75 Values against Aspergillus fumigatus isolate NCPF2010
Description: (§1) This assay was conducted using a modified method published by EUCAST (Rodriguez-Tudela, et al., 2008). Spores of Aspergillus fumigatus (NCPF2010, NCPF7010 [methionine 220 mutation], NCPF7099 [Glycine G54 mutation]) from Public Health England, Wiltshire; TR34/L98H mutants from St Louis Hospital, Paris, France; TR46/Y121F/T289A mutants from University of Delhi, Delhi, India) were cultured in Sabouraud dextrose agar for 3 days. A stock spore suspension was prepared from a Sabouraud dextrose agar culture by washing with PBS-tween (10 mL; phosphate buffered saline containing 0.05% Tween-20, 100 U/mL penicillin and 100 U/mL streptomycin). The spore count was assessed using a Neubauer haemocytometer and then adjusted to 10^6 spores/mL with PBS. A working suspension of spores (2×10^5 spores/mL) was prepared in filter sterilised, BSA MOPS RPMI-1640 (50 mL; RPMI-1640 containing 2 mM L-glutamine, 0.5% BSA, 2% glucose, 0.165 M MOPS, buffered to pH 7 with NaOH).
(§2) For the assay, BSA MOPS RPMI-1640 (50 μL/well) was added throughout the 384-well plate (Catalogue number 353962, BD Falcon, Oxford, UK) first. Test compounds (0.5 μL DMSO solution) were then added in quadruplicate using an Integra VIAFLO 96 (Integra, Zizers, Switzerland), and mixed well using a plate mixer. Subsequently 50 μL of the working spore suspension prepared above was added to all wells except non-spore control wells. For non-spore control wells, BSA MOPS-RPMI solution (50 μL/well) was added instead. The plate was covered with a plastic lid, and incubated (35° C. with ambient air) for 48 hr. The OD of each well at 530 nm was determined using a multi-scanner (Clariostar: BMG, Buckinghamshire, UK). The percentage inhibition for each well was calculated and the MIC50, MIC75 and MIC90 values were calculated from the concentration-response curve generated for each test compound.

[2] = system: Aspergillus fumigatus L98H (TR34/L98H); assay: Planktonic fungus growth: broth microdilution assay (L98H); conditions: Aspergillus fumigatus, read-out: MIC75 Values against Aspergillus fumigatus isolate L98H
Description: as §1, §2

[3] = system: Aspergillus fumigatus TR46 (TR46/Y121F/T289A); assay: Planktonic fungus growth: broth microdilution assay (TR46); conditions: Aspergillus fumigatus, read-out: MIC75 Values against Aspergillus fumigatus isolate TR46
Description: as §1, §2

[4] = system: Aspergillus fumigatus NCPF7099; assay: Planktonic fungus growth: broth microdilution assay (NCPF7099); conditions: Aspergillus fumigatus, NCPF7099, n = 2-3, read-out: MIC75 Values against Aspergillus fumigatus isolate NCPF7099
Description: as §1, §2

[5] = system: Aspergillus fumigatus NCPF7100; assay: Planktonic fungus growth: broth microdilution assay (NCPF7100); conditions: Aspergillus fumigatus, NCPF7100, read-out: MIC75 Values against Aspergillus fumigatus isolate NCPF7100
[6] = system: Aspergillus fumigatus (NCPF2010); assay: Aspergillus fumigatus infection of BEAS2B bronchial epithelial cells (galactomannan); conditions: NCPF2010, galactomannan in supernatant, 24 hr, n = 1-3, read-out: Infection of BEAS2B cells MIC50
Description: BEAS2B cells were seeded in 96-well plates (100 μL; 3×10^4 cells/well; Catalogue No 3596, Sigma Aldrich, Dorset, UK) in 10% FBS RPMI-1640 and were then incubated (37° C., 5% CO2) for one day before experimentation. Test compounds (0.5 μL DMSO solution) or vehicle (DMSO) were added to each well to give a final DMSO concentration of 0.5%. BEAS2B cells were incubated with test compounds for 1 hr (35° C., 5% CO2) before infection with Aspergillus fumigatus (20 uL; Public Health England) conidia suspension (0.5×10^5/mL in 10% FBS RPMI-1640). The plate was incubated for 24 hr (35° C., 5% CO2). Supernatant (50 uL) was collected and transferred to a PCR plate (Catalogue No L1402-9700, Starlab, Milton Keynes, UK), which was frozen (−20° C.) until use. After thawing, supernatant (5 μL) was diluted 1:20 by adding R7-PBS solution (95 μL; 1:4 R7 to PBS; Bio-Rad Laboratories, Redmond, Wash., USA). Galactomannan levels in these samples (50 μL) were measured using Platelia GM-EIA kits (Bio-Rad Laboratories, Redmond, Wash., USA). The percentage inhibition for each well was calculated and the IC50 value was calculated from the concentration-response curve generated for each test compound.

[7] = Cell viability: resazurin assay; conditions: human, 1 day incubation, resazurin, n = 3
Description: BEAS2B cells were seeded in 384-well plates (100 μL; 3000/well/; BD Falcon, Catalogue No 353962) in RPMI-LHC8 (RPMI-1640 and LHC8 media combined in equal proportions) one day before experimentation. For cell-free control wells, RPMI-LHC8 (100 μL) was added. Test compounds (0.5 μL of a DMSO solution) were added to give a final DMSO concentration of 0.5% using an Integra VIAFLO 96 (Integra, Zizers, Switzerland). BEAS2B cells were incubated with each test compound for 1 day (37° C./5% CO2 in RPMI-LHC8). After addition of resazurin stock solution (5 μL, 0.04%) the plates were incubated for a further 4 hr (37° C./5% CO2). The fluorescence of each well at 545 nm (excitation) and 590 nm (emission) was determined using a multi-scanner (Clariostar: BMG Labtech). The percentage loss of cell viability was calculated for each well relative to vehicle (0.5% DMSO) treatment. Where appropriate, a CC50 value was calculated from the concentration-response curve generated from the concentration-response curve for each test compound.

[8] = system: Aureobasidium pullulans ATCC9348; assay: Fungus panel screening, CLSI broth microdilution; conditions: for MIC50: 50% inhibition by visual inspection (CLSI); for MIC: 100% inhibition by visual inspection (CLSI), read-out: MIC100
Description: (§3) Fungus panel screening was conducted by Eurofins Panlabs Inc. The MIC and MIC50 values of the test articles were determined following the guidelines of the CLSI: broth microdilution methods for yeast (CLSI M27-A2), (CLSI, 2002) and for filamentous fungi (CLSI M38-A), (CLSI, 2008).

[9] = system: Candida albicans ATCC10231; assay: Fungus panel screening, CLSI broth microdilution; conditions: for MIC50: 50% inhibition by visual inspection (CLSI); for MIC: 100% inhibition by visual inspection (CLSI), read-out: MIC100
Description: as §3

Candida glabrata 20197.1 = assay: Fungus panel screening, CLSI broth microdilution; conditions: Nakaseomyces glabratus; for MIC50: 50% inhibition by visual inspection (CLSI); for MIC: 100% inhibition by visual inspection (CLSI), read-out: MIC100
Description: as §3

[10] = system: Cryptococcus neoformans ATCC24067; assay: Fungus panel screening, CLSI broth microdilution; conditions: for MIC50: 50% inhibition by visual inspection (CLSI); for MIC: 100% inhibition by visual inspection (CLSI), read-out: MIC100
Description: as §3

| Structure (SMILES) | MIC [1] [µM] | MIC [2] [µM] | MIC [3] [µM] | MIC [4] [µM] | MIC [5] [µM] | MIC50 [6] [µM] | CC50 at 1 day ([7]; BEAS2B cells) [µM] | MIC50 [8] [µg/mL] | MIC [8] [µg/mL] | MIC50 [9] [µg/mL] | MIC [9] [µg/mL] | MIC50 (Candida glabrata 20197.1) [µg/mL] | MIC (Candida glabrata 20197.1) [µg/mL] | MIC50 [10] [µg/mL] | MIC [10] [µg/mL] | CC50 at 1 day ([7]; read-out: BEAS2B Cell Viability CC50) [µM] |
| --- | --- | --- | --- | --- | --- | --- | --- | --- | --- | --- | --- | --- | --- | --- | --- | --- |
| Cc1cc(N2CCN(c3ccc(C(=O)N[C@H]4CCCC[C@@H]4O)cc3)CC2)ccc1OC[C@@H]1CO[C@@](Cn2cncn2)(c2ccc(F)cc2F)C1 [Compound (Ia), 4-(4-(4-(((3R,5R)-5-((1H-1,2,4-triazol-1-yl)methyl)-5-(2,4-difluorophenyl)tetrahydrofuran-3-yl)methoxy)-3-methylphenyl)piperazin-1-yl)-N-((1S,2S)-2-hydroxycyclohexyl) benzamide] | 0.00281 (≈ 0.00193 µg/mL) | 0.0127 (≈ 0.00872 µg/mL) | 0.093 (≈ 0.0639 µg/mL) | 0.01 (≈ 0.00687 µg/mL) | 0.0127 (≈ 0.00872 µg/mL) | 0.00635 (≈ 0.00436 µg/mL) | > 14.6 | 0.25 (≈ 0.364 µM) | 1 (≈ 1.46 µM) | 0.25 (≈ 0.364 µM) | > 2 | 0.0078 (≈ 0.0114 µM) | > 2 | 0.016 (≈ 0.0233 µM) | 0.063 (≈ 0.0917 µM) | – |
| CC[C@@H]([C@H](C)O)n1ncn(-c2ccc(N3CCN(c4ccc(OC[C@@H]5CO[C@@](Cn6cncn6)(c6ccc(F)cc6F)C5)cc4)CC3)cc2)c1=O [Posaconazole, reference compound] | 0.0109 (≈ 0.00764 µg/mL) | 0.0983 (≈ 0.0689 µg/mL) | 0.414 (≈ 0.29 µg/mL) | 0.167 (≈ 0.117 µg/mL) | 0.0597 (≈ 0.0418 µg/mL) | 0.0116 (≈ 0.00813 µg/mL) | > 14.3 | 0.25 (≈ 0.357 µM) | 1 (≈ 1.43 µM) | 0.13 (≈ 0.186 µM) | > 8 | 0.031 (≈ 0.0442 µM) | > 8 | 0.016 (≈ 0.0228 µM) | 0.25 (≈ 0.357 µM) | – |
| C[C@@H](c1ncncc1F)[C@](O)(Cn1cncn1)c1ccc(F)cc1F [Voriconazole] | 0.511 (≈ 0.179 µg/mL) | 2.58 (≈ 0.903 µg/mL) | > 2.86 | 0.113 (≈ 0.0395 µg/mL) | 0.543 (≈ 0.19 µg/mL) | 0.154 (≈ 0.0538 µg/mL) | – | > 8 | > 8 | 0.25 (≈ 0.716 µM) | > 8 | 0.031 (≈ 0.0887 µM) | > 8 | 0.016 (≈ 0.0458 µM) | 1 (≈ 2.86 µM) | > 28.6 |

Reference: US10513511B2, “Aqueous suspension formulation comprising 4-(4-(4-(((3R,5R)-5-((1H-1,2,4-triazol-1-yl)methyl)-5-(2,4-difluoro-phenyl)tetrahydrofuran-3-yl)methoxy)-3-methylphenyl) or a pharmaceutically acceptable salt thereof” (PULMOCIDE LIMITED, priority 2015, dated 2019)
